Reference: ChEMBL document CHEMBL1201862, “PubChem BioAssay data set” (2004)
Active and inactive are the calls of the source.

What was measured:
[1] = molecular target: T1, Zinc finger protein mex-5 (Caenorhabditis elegans, UniProt Q9XUB2); assay: MEX-5/TCR-2 RNA interaction inhibitors, dose response, biochemical, C. elegans, fluorescence polarization (AID 1960)
T1 sequence (Q9XUB2 whole entry): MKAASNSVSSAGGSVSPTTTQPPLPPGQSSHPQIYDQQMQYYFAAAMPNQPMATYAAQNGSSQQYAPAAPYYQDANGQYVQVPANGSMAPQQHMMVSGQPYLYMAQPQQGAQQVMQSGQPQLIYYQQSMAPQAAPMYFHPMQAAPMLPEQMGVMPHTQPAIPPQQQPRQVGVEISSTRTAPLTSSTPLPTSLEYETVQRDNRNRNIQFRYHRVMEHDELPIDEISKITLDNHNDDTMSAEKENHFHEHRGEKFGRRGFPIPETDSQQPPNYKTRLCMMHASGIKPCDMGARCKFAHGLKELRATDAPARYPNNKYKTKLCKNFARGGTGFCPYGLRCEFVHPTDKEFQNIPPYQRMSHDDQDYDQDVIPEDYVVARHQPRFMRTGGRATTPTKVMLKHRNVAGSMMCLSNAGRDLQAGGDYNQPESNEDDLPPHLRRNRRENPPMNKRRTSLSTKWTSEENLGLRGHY

[2] = molecular target: T2, RNA-binding protein pos-1 (Caenorhabditis elegans, UniProt G5EF15); assay: inhibitors of POS-1/mex-3 RNA binding, dose response, biochemical, fluorescence polarization (AID 1964);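 note: purified POS-1 fused to maltose binding protein made in E. coli; potency of compounds blocking POS-1 binding to fluorescent RNA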
T2 sequence (G5EF15 whole entry): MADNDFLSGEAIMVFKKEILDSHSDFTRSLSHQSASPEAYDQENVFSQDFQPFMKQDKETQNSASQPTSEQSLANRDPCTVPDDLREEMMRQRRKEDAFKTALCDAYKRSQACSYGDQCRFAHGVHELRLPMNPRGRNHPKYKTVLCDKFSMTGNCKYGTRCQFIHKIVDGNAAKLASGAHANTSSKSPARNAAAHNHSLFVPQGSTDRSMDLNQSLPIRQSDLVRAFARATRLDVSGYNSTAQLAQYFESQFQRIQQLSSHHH

[3] = molecular target: Dual specificity tyrosine-phosphorylation-regulated kinase 1A (Rattus norvegicus, UniProt Q63470); format: biochemical, Homo sapiens
Escherichia coli = assay: microbe, parasite or virus in culture
[4] = molecular target: T3, Orexin/Hypocretin receptor type 1 (Homo sapiens, UniProt O43613); assay: (§1) Fluorescence-based cell-based high throughput dose response assay for antagonists of the orexin 1 receptor (OX1R; HCRTR1). [Related pubchem assays (depositor defined):AID434989, AID435008, AID463079, AID485270, AID492963, AID492964, AID492965, AID493232, AID504717, AID504718]; format: functional
T3 sequence (O43613 whole entry): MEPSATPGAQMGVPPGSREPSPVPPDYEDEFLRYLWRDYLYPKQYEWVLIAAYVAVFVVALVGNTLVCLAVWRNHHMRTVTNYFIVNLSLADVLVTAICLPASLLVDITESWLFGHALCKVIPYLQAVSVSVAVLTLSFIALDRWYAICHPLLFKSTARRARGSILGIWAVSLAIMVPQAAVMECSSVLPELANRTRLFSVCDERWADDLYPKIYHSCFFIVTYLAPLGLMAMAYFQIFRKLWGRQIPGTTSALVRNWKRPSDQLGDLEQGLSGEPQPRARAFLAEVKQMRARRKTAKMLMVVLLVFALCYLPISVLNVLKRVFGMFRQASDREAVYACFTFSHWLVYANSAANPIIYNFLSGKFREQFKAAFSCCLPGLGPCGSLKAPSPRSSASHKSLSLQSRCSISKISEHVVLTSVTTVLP

CHO-K1 = assay: (§2) Counterscreen for antagonists of the orexin 1 receptor (OX1R; HCRTR1): Homogeneous time resolved fluorescence (HTRF)-based cell-based dose response assay to identify antagonists of the parental CHO-K1 cell line. [Related pubchem assays (depositor defined):AID434989, AID435008, AID463079, AID485270, AID492963, AID492964, AID492965, AID493232, AID504699, AID504701]; format: functional; settings: Cricetulus griseus
[5] = as §2, with “Fluorescence-based” for “Homogeneous time resolved fluorescence (HTRF)-based”, “cell-based high throughput” for “cell-based”, “CHO” for “CHO-K1”; format: functional
[6] = molecular target: T3, Orexin/Hypocretin receptor type 1; assay: as §1, with “Homogeneous Time Resolved Fluorescence (HTRF)-based” for “Fluorescence-based”; format: functional
[7] = growth induction of Burl-1 ts yeast mutant, dose response, counter-screen for SUMOylation pathway inhibitor project, whole organism, S. cerevisiae, luminescence (AID 463199); format: functional
CAAX prenyl protease 2 [8] = molecular target: T4, CAAX prenyl protease 2 (Saccharomyces cerevisiae S288c, UniProt Q03530); format: biochemical
T4 sequence (Q03530 whole entry): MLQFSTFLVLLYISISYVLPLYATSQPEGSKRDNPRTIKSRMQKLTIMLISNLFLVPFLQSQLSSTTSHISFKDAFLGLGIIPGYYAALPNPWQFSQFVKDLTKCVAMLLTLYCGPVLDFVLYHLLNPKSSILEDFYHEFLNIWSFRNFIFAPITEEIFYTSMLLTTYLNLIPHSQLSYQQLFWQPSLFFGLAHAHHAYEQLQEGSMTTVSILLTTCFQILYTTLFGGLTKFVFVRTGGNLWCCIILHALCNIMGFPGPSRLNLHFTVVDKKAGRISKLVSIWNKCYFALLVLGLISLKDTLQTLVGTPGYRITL

CAAX prenyl protease 2 [9] = molecular target: CAAX prenyl protease 2 (Homo sapiens, UniProt Q9Y256); assay: human Rce1 protease inhibitors, dose response, biochemical, yeast membranes, quenched-peptide fluorescence, cherry-pick (AID 588849)
Trypsin = Trypsin (Sus scrofa, UniProt P00761); assay: porcine trypsin inhibitors, dose response, selectivity assay for Rce1 protease inhibitor project, biochemical, quenched peptide fluorescence, cherry-pick (AID 488789)
[10] = molecular target: T5, Voltage-gated N-type calcium channel alpha-1B subunit/Amyloid beta A4 precursor protein-binding family A member 1 (Homo sapiens, UniProt Q00975+Q02410); format: protein assay
[11] = molecular target: T5, Voltage-gated N-type calcium channel alpha-1B subunit/Amyloid beta A4 precursor protein-binding family A member 1; format: protein assay; remark: listed apart in the source
[12] = molecular target: Induced myeloid leukemia cell differentiation protein Mcl-1 (Homo sapiens, UniProt Q07820); format: functional
[13] = molecular target: T6, Carboxy-terminal domain RNA polymerase II polypeptide A small phosphatase 1 (Homo sapiens, UniProt Q9GZU7); assay: inhibitors of CTDSP1, concentration-response testing, biochemical assay, absorbance-based, actives from ultra-high-throughput screening (AID 540297); format: functional
T6 sequence (Q9GZU7 whole entry): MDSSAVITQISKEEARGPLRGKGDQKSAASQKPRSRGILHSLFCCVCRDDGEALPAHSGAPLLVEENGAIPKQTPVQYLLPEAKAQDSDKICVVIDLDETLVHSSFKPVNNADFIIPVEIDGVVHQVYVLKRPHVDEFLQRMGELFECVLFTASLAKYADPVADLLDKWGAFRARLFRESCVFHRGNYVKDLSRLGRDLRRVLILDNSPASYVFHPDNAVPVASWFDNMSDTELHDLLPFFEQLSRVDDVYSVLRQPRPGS

[14] = molecular target: T7, Tyrosine-protein phosphatase non-receptor type 7 (Homo sapiens, UniProt P35236); assay: HePTP (PTPN7) phosphatase inhibitor potency, SAR follow-up, biochemical, set 2 (AID 449736); format: functional
T7 sequence (P35236 whole entry): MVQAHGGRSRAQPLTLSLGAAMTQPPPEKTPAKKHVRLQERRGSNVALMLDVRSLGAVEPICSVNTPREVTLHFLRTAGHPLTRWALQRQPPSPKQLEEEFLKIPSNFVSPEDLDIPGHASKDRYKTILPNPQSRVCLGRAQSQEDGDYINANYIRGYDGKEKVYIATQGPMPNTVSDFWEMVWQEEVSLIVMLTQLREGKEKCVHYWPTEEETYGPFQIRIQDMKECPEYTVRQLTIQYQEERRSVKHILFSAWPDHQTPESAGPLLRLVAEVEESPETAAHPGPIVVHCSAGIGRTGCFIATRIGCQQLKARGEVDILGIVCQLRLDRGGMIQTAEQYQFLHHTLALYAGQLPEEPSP

T5 sequence (Q00975 whole entry): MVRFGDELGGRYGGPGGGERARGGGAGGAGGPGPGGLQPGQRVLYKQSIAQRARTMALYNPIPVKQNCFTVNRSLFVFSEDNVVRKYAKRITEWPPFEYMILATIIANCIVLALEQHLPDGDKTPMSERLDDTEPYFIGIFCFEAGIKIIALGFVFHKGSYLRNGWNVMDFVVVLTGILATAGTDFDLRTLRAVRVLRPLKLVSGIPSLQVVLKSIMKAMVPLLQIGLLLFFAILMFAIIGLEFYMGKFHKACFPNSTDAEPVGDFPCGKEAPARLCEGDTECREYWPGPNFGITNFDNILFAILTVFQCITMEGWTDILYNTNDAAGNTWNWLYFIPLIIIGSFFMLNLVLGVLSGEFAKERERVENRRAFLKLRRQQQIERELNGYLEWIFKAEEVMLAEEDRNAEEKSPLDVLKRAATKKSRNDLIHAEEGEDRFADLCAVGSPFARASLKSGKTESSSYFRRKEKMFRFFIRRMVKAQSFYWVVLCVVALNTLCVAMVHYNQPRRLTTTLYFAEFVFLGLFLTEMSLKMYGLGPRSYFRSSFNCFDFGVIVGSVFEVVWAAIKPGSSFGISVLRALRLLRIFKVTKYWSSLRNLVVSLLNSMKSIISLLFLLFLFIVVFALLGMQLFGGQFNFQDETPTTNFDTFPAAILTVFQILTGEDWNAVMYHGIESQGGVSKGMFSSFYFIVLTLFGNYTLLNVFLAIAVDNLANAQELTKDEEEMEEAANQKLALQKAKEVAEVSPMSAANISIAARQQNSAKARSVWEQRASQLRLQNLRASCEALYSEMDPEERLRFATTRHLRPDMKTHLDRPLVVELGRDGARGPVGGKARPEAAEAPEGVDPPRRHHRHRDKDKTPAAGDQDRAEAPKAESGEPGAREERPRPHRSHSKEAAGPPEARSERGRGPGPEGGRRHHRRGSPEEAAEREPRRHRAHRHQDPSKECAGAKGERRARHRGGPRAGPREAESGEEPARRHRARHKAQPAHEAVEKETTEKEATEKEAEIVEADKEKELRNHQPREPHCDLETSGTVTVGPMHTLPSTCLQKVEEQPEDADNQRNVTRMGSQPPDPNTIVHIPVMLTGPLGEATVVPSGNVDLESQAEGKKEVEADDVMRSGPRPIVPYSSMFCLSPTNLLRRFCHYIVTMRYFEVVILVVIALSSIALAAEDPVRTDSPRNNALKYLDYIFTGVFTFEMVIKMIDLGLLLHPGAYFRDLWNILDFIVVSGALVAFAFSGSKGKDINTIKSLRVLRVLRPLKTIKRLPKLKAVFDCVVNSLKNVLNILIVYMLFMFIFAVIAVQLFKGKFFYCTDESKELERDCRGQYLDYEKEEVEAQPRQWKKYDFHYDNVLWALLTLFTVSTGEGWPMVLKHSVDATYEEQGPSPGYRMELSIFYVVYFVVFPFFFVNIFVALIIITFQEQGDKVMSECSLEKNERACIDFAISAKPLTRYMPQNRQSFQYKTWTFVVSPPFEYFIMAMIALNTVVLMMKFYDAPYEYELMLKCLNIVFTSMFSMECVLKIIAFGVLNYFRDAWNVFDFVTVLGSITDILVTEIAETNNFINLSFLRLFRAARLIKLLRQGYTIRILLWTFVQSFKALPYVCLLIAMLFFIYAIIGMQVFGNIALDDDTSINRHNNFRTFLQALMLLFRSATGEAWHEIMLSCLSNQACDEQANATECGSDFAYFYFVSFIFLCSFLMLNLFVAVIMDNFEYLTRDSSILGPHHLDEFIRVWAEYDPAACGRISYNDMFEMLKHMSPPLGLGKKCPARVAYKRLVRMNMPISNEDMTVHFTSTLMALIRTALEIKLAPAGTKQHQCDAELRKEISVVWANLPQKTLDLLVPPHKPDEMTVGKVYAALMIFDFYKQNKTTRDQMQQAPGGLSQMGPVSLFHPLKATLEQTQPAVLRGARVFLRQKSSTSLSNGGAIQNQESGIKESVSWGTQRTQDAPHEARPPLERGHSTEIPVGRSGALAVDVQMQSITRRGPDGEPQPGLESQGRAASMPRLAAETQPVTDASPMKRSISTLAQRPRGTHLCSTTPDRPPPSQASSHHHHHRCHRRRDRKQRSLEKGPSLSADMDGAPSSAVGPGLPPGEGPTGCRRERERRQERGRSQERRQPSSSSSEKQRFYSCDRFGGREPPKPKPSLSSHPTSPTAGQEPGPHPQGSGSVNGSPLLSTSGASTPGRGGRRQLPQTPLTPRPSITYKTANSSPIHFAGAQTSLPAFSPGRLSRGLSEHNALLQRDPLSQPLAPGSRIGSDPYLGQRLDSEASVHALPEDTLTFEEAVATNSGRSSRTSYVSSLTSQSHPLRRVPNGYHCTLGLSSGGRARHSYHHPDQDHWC
T5 sequence (Q02410 whole entry): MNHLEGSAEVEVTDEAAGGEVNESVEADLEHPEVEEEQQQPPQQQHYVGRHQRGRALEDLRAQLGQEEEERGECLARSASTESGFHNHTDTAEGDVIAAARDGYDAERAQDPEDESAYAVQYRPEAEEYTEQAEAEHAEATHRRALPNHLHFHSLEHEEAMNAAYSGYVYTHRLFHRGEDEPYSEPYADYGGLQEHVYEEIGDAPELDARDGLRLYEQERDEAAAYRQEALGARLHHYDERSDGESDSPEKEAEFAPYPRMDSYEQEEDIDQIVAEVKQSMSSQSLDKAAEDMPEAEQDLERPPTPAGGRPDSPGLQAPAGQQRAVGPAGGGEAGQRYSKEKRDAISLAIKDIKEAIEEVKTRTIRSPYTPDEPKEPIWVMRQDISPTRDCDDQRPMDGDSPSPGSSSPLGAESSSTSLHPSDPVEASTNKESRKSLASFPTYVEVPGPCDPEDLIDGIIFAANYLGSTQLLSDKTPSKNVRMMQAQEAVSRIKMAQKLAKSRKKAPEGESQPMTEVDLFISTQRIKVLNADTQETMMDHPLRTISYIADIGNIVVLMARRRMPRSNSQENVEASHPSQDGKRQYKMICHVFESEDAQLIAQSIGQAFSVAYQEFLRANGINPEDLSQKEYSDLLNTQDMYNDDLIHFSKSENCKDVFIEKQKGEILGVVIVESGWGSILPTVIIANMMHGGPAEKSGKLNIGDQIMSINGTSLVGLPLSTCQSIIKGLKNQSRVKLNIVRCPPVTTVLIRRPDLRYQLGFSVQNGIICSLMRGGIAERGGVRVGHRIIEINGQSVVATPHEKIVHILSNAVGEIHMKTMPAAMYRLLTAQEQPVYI
Chain of CAAX prenyl protease 2 (Homo sapiens, UniProt Q9Y256) (Q9Y256 whole entry): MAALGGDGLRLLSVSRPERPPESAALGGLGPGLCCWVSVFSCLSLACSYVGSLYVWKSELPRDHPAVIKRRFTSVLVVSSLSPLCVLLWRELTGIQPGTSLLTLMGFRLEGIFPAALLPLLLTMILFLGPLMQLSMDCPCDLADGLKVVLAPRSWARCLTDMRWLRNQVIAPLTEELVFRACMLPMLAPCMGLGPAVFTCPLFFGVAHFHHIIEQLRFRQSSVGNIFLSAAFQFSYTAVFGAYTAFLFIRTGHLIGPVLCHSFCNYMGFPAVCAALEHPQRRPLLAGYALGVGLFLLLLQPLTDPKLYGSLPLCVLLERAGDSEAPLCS
Chain of Trypsin (P00761 whole entry): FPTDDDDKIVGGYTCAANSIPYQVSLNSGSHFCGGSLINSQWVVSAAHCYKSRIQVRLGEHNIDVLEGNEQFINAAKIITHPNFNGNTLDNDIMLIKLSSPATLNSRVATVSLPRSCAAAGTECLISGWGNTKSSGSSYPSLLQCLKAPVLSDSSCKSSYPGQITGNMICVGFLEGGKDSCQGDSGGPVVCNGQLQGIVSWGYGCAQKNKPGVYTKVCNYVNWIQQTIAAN
Chain of Induced myeloid leukemia cell differentiation protein Mcl-1 (Q07820 whole entry, the tested form may be a part): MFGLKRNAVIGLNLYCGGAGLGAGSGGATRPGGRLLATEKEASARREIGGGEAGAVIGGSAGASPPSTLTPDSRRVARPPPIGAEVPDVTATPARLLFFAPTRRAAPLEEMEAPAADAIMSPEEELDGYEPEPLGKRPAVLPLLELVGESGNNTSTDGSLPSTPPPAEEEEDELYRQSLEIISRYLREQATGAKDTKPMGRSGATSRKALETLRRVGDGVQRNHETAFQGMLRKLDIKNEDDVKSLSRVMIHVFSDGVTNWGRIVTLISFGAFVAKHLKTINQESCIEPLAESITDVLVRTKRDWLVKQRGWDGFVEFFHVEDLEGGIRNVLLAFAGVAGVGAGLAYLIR

**Q.** Which EC50 [1] does the source give for Cc1c(C(=O)O)cccc1-n1c(C)cc(/C=N/Nc2ccc([N+](=O)[O-])cn2)c1C here?
**A.** 50.2 µM (active)

**Q.** What about the EC50 [2] of the same compound?
**A.** > 300 µM (not active)

**Q.** And the AC50 [3]?
**A.** 6.79 µM (active)

**Q.** For CCc1nc2ccccc2c(C(=O)OC2CCOC2=O)c1C (stereo not given), which AC50 (Escherichia coli) is on record?
**A.** 42.9 µM (active)

**Q.** Which IC50 [4] does the source give for Cn1c2ccc(F)cc2c2nc3ccccc3nc21 here?
**A.** 6.95 µM (active)

**Q.** What about the IC50 (CHO-K1) of the same compound?
**A.** > 66.2 µM (inactive)

**Q.** And the IC50 [5]?
**A.** > 49.7 µM (inactive)

**Q.** What about the IC50 [6] of the same compound?
**A.** 1.17 µM (active)

**Q.** For Cc1ccccc1-c1nnc(CN2CCC(C)CC2)o1, which AC50 [7] is on record?
**A.** 46.9 µM (active)

**Q.** Which results are given for Cc1ccc(S(=O)(=O)Cc2cn3cccnc3n2)cc1?
**A.** AC50 (CAAX prenyl protease 2 [8]): 16.2 µM (active); AC50 (CAAX prenyl protease 2 [9]): 34.3 µM (active); AC50 (Trypsin): 25.1 µM (active)

**Q.** Which results are given for Cc1c(O)cc2c(c1O)C(=O)CC(c1ccc(O)cc1)O2 (stereo not given)?
**A.** IC50 [10]: 13.1 µM (active); IC50 [11]: > 50 µM (inactive); IC50 [12]: 3.94 µM (active); IC50 [13]: 4.74 µM (active)

**Q.** Which results are given for COc1ccc(-n2nc(C(=O)NCC(=O)NCc3ccc(F)cc3)c3ccccc3c2=O)cc1?
**A.** AC50 (CAAX prenyl protease 2 [8]): 5.21 µM (active); AC50 (CAAX prenyl protease 2 [9]): 9.42 µM (active); AC50 (Trypsin): 9.62 µM (active)

**Q.** Which IC50 [14] does the source give for CCNS(=O)(=O)c1ccc(NC(=S)NC2CCCCC2)cc1 here?
**A.** > 100 µM (inactive)
